Experimental data: patent publication US6472526B1, “Imidazole derivatives having an inhibitory activity for farnesyl transferase and process for preparation thereof” (LG Chemical Ltd., priority 1997, dated 2002)

Experiments:
[1] = biological target: T1, Ras farnesyl transferase (Homo sapiens, UniProt P49354+P49356); experiment: In vitro inhibitory activity for Ras farnesyl transferase, H-Ras substrate; format: biochemical; details: recombinant farnesyl transferase 4.5 nM, Ras substrate protein 1.5 μM, tritium-farnesylpyrophosphate 0.15 μM, 30 minutes at 37° C.; read-out: H-Ras IC50
T1 construct: made in house
Method: In the present experiment, Ras farnesyl transferase produced by genetic recombination techniques according to the improved Pompliano's method (Pompliano et al., Biochemistry, 1992, 31, 3800) was used, and Ras substrate (Ras-CVLS) protein described in Korean Patent Appln. No. 97-14409 was used after it has been purified according to the known method (see, Chung et al., Biochimica et Biophysica Acta, 1992, 278, 1129).
The enzyme reaction was performed in 50 μl of 50 mM Sodium HEPES buffer solution containing 25 mM of potassium chloride, 25 mM of magnesium chloride, 10 mM of DTT and 50 μM of zinc chloride. 1.5 μM of Ras substrate protein, 0.15 μM of tritium-farnesylpyrophosphate and 4.5 nM of farnesyl transferase were used.
More specifically, in the initial step, farnesyl transferase was added to the above buffer solution, reaction was maintained for 30 minutes at 37° C. and then the reaction was stopped by adding 1 ml of ethanol solution containing 1M HCl. The formed precipitates were adsorbed to GF/B filter using Hopper harvestor(Hopper #FH 225V) for filter-binding, washed with ethanol, and then radioactivity of the dried filter was measured using LKB β counter. Enzyme titer was measured in the unsaturated state of substrate where the concentrations of Ras substrate protein and farnesyl transferase have quantitative relationship. The compound according to the present invention dissolved in dimethyl sulfoxide (DMSO) was added to the reaction solution in an amount of less than 5% of the total reaction solution, and then the enzyme inhibitory activity thereof was measured. The enzyme inhibitory activity was represented by percentage of the amount of farnesyl incorporated into the Ras substrate protein in the presence of the test compound to that in the absence of the test compound. IC50 of the test compound was defined as the concentration at which 50% of the enzyme activity was inhibited.

[2] = biological target: T1, Ras farnesyl transferase; experiment: In vitro inhibitory activity for Ras farnesyl transferase, K-Ras substrate; format: biochemical; details: in vitro farnesyl transferase assay, K-Ras; read-out: K-Ras IC50
[3] = biological target: T2, Ras farnesyl transferase (Rattus norvegicus, UniProt Q02293+Q04631); experiment: In vivo (cellular) inhibitory activity for Ras farnesyl transferase, Rat2 cell line which expresses C-Harvey-Ras protein; format: cell-based; details: Rat2 cell line expressing C-Harvey-Ras; concentration inhibiting 50% of farnesyl bonding of Ras protein; read-out: H-Ras CIC50
T2 construct: endogenous in cells; host or cells: Rat2 fibroblasts transformed with H-Ras or with an H-Ras/K-Ras C-terminus fusion
Method: (§1) In the present experiment, Rat2 cell line which expresses C-Harvey-Ras protein having transforming activity and Rat2 cell line (Korean patent application No. 97-14409) which is transformed with fused protein of H-Ras substituted with polybasic lysine domain at C-terminus of K-Ras were used. The experiment was performed by the modified Declue's method (Declue. J. E. et al., Cancer Research, 1991, 51, 712). Hereinafter, the experimental method will be described in more detail.
(§2) 3×10^5 cells of transformed Rat2 fibroblast cell line were sprayed on 60 mm cell cultivation dish and cultivated for 48 hours in a cell incubator at 37° C. and after 50% or more of density was reached, it was treated with the test compounds. The compound according to the present invention dissolved in dimethylsulfoxide (DMSO) was used. 1% concentration of dimethylsulfoxide was used in both control and test groups. After 4 hours from the treatment with the compound, methionine labeled with 150 μCi of radioactive isotope [^35S] per 1 ml of medium was added and after cultivating for 20 hours, the cells were, washed with physiological saline water. The cells were lysed using 1 ml of cold cell lysis buffer solution (50 mM of Sodium HEPES buffer solution containing 5mM of magnesium chloride, 1 mM of DTT, 1% NP 40, 1 mM of EDTA, 1 mM of PMSF, 2 μM of leupeptin, 2 μM of pepstatin A and 2 μM of antipain) and the supernatant wherein the cells were lysed was obtained by high-velocity centrifugation of 12,000 g×5 minutes. The amount of radioisotope in the supernatant was measured and standardized to obtain a quantitative result in immunoprecipitation reaction and then, Y13-259, a monoclonal antibody specifically binding to Ras protein (Furth, M. E. et al., J. Virol, 1982, 43, 294) was added and reacted for 15 hours at 4° C. Protein A(combined with goat anti-murine immunoglobulin antibody)-agarose suspension was added to the solution and reacted for 1 hour at 4° C. and then, to remove the unspecific binding product, immunoprecipitates were washed with a buffer solution (50 mM Tris chloride buffer solution containing 50 mM of sodium chloride, 0.5% of sodium dioxycolate, 0.5% of NP 40 and 0.1% of SDS). The precipitates were added to a buffer solution for electrophoresis and boiled and then, electrophoresis was performed using 13.5% of SDS polyacrylamide gel. After electrophoresis, the gel was fixed and dried. Then, the gel was exposed to X-ray film, developed printed. From the result of the experiment, intensities of band of in combined with or without farnesyl of Ras protein were measured, the concentration of the test compound inhibiting 50% of farnesyl bonding was defined as […], an in vivo Ras farnesyl transferase inhibitory activity.

[4] = biological target: T2, Ras farnesyl transferase; experiment: In vivo (cellular) inhibitory activity for Ras farnesyl transferase, Rat2 cell line transformed with fused protein of H-Ras substituted with polybasic lysine domain at C-terminus of K-Ras; format: cell-based; details: Rat2 cell line transformed with H-Ras fused with polybasic lysine domain of K-Ras C-terminus; concentration inhibiting 50% of farnesyl bonding; read-out: K-Ras CIC50
Method: as §1, §2

Row | Compound | IC50 [1] [nM] | IC50 [2] [nM] | IC50 [3] [nM] | IC50 [4] [nM]
1 | N#Cc1ccc(Cn2cncc2Cn2cc(C(=O)c3ccc(Br)cc3)c(-c3cccc4ccccc34)c2)cc1 [Compound 77] | 4 | 120 | 100 | 
2 | 3-[N-(2-Methoxyethyl)-N-methyl]carbamoyl-4-(naphthalen-1-yl)-1-(1-octyl-1H-imidazol-5-yl)methyl-1H-pyrrole [Compound 118] |  |  |  | < 40000
3 | COCCN(C)C(=O)c1cn(Cc2cncn2Cc2ccc(C#N)cc2)cc1-c1cccc2ccccc12 [Compound 110, 1-[1-(4-Cyanobenzyl)-1H-imidazol-5-yl]methyl-3-[N-(2-methoxyethyl)-N-methyl]carbamoyl-4-(naphthalen-1-yl)-1H-pyrrole] | 0.6 | 1.5 | 8 | 
4 | O=C(c1cn(Cc2cncn2Cc2ccc(Br)cc2)cc1-c1cccc2ccccc12)N1CCOCC1 [Compound 112, 1-[1-(4-Bromobenzyl)-1H-imidazol-5-yl]methyl-3-(morpholin-4yl)carbonyl-4-(naphthalen-1-yl)-1H-pyrrole] | 4 | 6 | 15 | 
5 | 1-(1-Decyl-1H-imidazol-5-yl)methyl-3-[N-(2-methoxyethyl)-N-methyl]carbamoyl-4-(naphthalen-1-yl-1H-pyrrole [Compound 119] |  |  |  | < 30000
6 | CN1CCN(C(=O)c2cn(Cc3c[nH]cn3)cc2-c2cccc3ccccc23)CC1 [Compound 89] | 14 | 100 to 10000 |  | 10000 to 100000
7 | COCCN(C)C(=O)c1cn(Cc2cncn2CCOC)cc1-c1cccc2ccccc12 [Compound 121, 1-[1-(2-Methoxyethyl)-1H-imidazol-5-yl]methyl-3-[N-(2-methoxyethyl)-N-methyl]carbamoyl-4-(naphthalen-1-yl)-1H-pyrrole] |  |  |  | < 40000
8 | CCOCCCn1cncc1Cn1cc(C(=O)N(C)CCOC)c(-c2cccc3ccccc23)c1 [Compound 123, 1-[1-(3-Ethoxypropyl)-1H-imidazol-5-yl]methyl-3-[N-(2-methoxyethyl)-N-methyl]carbamoyl-4-(naphthalen-1-yl)-1H-pyrrole] |  |  |  | < 40000
9 | COCCN(C)C(=O)c1cn(Cc2cncn2CCC(C)C)cc1-c1cccc2ccccc12 [Compound 120] |  |  |  | < 20000
10 | 3-[N-(2-Methoxyethyl)N-methyl]carbamoyl-4-(naphthalen-1-yl)-1-(1-pentyl-1H-imidazol-5-yl)methyl-1H-pyrrole [Compound 117] |  |  |  | < 50000
11 | COCCN(C)C(=O)c1cn(Cc2cncn2CCCOC(C)C)cc1-c1cccc2ccccc12 [Compound 124, 1-[1-(3-Isopropoxypropyl)-1H-imidazol-5-yl]methyl-3-[N-(2-methoxyethyl)-N-methyl]carbamoyl-4(naphthalen-1-yl)-1H-pyrrole] |  |  |  | < 20000
12 | COCCCn1cncc1Cn1cc(C(=O)N(C)CCOC)c(-c2cccc3ccccc23)c1 [Compound 122] |  |  |  | < 30000

More lines, now with the values ahead:

Row | IC50 [1] [nM] | IC50 [2] [nM] | IC50 [3] [nM] | IC50 [4] [nM] | Compound
13 | 300 | 4000 | 1200 |  | COC(=O)N1CCC(Cn2cncc2Cn2cc(C(=O)N3CCOCC3)c(-c3cccc4ccccc34)n2)CC1 [Compound 159]
14 | 150 | 10000 |  | > 50000 | Cn1cncc1Cn1cc(C(=O)N2CCOCC2)c(-c2cccc3ccccc23)n1 [Compound 163, 1-(1-Methyl-1H-imidazol-5-ylmethyl)-4-(morpholin-4-yl)carbonyl-3-(naphthalen-1-yl)-1H-pyrazole]
15 | 30 | 100 | 150 |  | COCCN(C)C(=O)c1cn(Cc2cncn2CC2CCN(C(=O)OC)CC2)nc1-c1cccc2ccccc12 [Compound 153, 1-[1-(1-Methoxycarbonylpiperidin-4-ylmethyl)-1H-imidazole-5-ylmethyl]-4-[N-(2-methoxyethyl)-N-methyl]-carbamoyl-3-(naphthalen-1-yl)-1H-pyrazole]
16 | 200 | 2000 |  |  | O=C(c1cn(Cc2cncn2Cc2ccc(Cl)cc2)nc1-c1cccc2ccccc12)N1CCOCC1 [Compound 161, 1-[1-(4-Chlorobenzyl)-1H-imidazol-5-ylmethyl]-4-(morpholin-4-yl)carbonyl-3-(naphthalen-1-yl)-1H-pyrazole]
17 | 90 | 10000 |  |  | O=C(c1nc(Cc2cncn2Cc2ccc(Cl)cc2)sc1-c1cccc2ccccc12)N1CCOCC1 [Compound 146, 2-[1-(4-Chlorobenzyl)-1H-imidazol-5-ylmethyl]-4-(morpholin-4-yl)carbonyl-5-(naphthalen-1-yl)thiazole]
18 | 30 | 200 | 150 |  | COCCN(C)C(=O)c1cn(Cc2cncn2Cc2ccc(Br)cc2)nc1-c1cccc2ccccc12 [Compound 154, 1-[1-(4-Bromobenzyl)-1H-imidazol-5-ylmethyl]-4-[N-(2-methoxyethyl)-N-methyl]-carbamoyl-3-(naphthalen-1-yl)-1H-pyrazole]
19 | 380 |  |  | > 50000 | CCOC(=O)c1nc(Cc2cnc[nH]2)sc1-c1cccc2ccccc12 [Compound 144, 4-Ethoxycarbonyl-2-(1H-imidazol-5-ylmethyl)-5-(naphthalen-1-yl)thiazole]
20 | 250 | 2000 |  |  | N#Cc1ccc(Cn2cncc2Cn2cc(C(=O)N3CCOCC3)c(-c3cccc4ccccc34)n2)cc1 [Compound 162, 1-[1-(4-Cyanobenzyl)-1H-imidazol-5-ylmethyl]-4-(morpholin-4-yl)carbonyl-3-(naphthalen-1-yl)-1H-pyrazole]
21 | 5000 | > 50000 |  | > 50000 | O=C(c1sc(Cc2cncn2Cc2ccc(Cl)cc2)nc1-c1cccc2ccccc12)N1CCOCC1 [Compound 149, 2-[1-(4-Chlorobenzyl)-1H-imidazol-5-ylmethyl]-5-(morpholin-4-yl)carbonyl-4-(naphthalen-1-yl)thiazole]
22 | 4600 | > 50000 |  | > 50000 | COCCN(C)C(=O)c1sc(Cc2cncn2CC2CCN(C(=O)OCc3ccccc3)CC2)nc1-c1cccc2ccccc12 [Compound 151]
23 | 250 | 2000 |  | 30000 | O=C(OCc1ccccc1)N1CCC(Cn2cncc2Cn2cc(C(=O)N3CCOCC3)c(-c3cccc4ccccc34)n2)CC1 [Compound 158, 1-[1-(1-Benzyloxycarbonyl-piperidin-4-ylmethyl)-1H-imidazol-5-ylmethyl]-4-(morpholin-4-yl)carbonyl-3-(naphthalen-1-yl)-1H-pyrazole]
